From patent publication US6265537A, “Thiodepsipeptides for combating endoparasites and a method for producing the same” (Bayer Aktiengesellschaft, priority 1997, dated 2001)

Tests used:
Haemonchus contortus = assay: In vivo nematode test Haemonchus contortus/sheep; conditions: sheep infected with Haemonchus contortus; applied orally and/or intravenously as pure active compound; complete cessation of worm egg excretion with the faeces after treatment
Experimental: Haemonchus contortus/Sheep Sheep which had been experimentally infected with Haemonchus contortus were treated after the prepotency time of the parasite had elapsed. The active compounds were applied orally and/or intravenously as pure active compound. The degree of effectiveness is determined by quantitatively counting the worm eggs which have been excreted with the faeces before and after the treatment. A complete cessation of egg excretion after the treatment means that the worms have been aborted or damaged to such an extent that they no longer produce eggs (dosis […]). Active compounds tested and effective dosage rates can be seen from the table which follows

Heterakis spumosa = assay: In vivo nematode test Heterakis spumosa/mouse; conditions: mice infected with Heterakis spumosa; dosage rate 50 mg/kg, applied orally and/or intraperitoneally on day 46 after infection; adult parasites in colon and caecum counted on day 54, compared with untreated control
Source text: Mice are experimentally infected with nematodes of the variety Heterakis spumosa. In order to infect the mice, 90 embryonate Heterakis spumosa eggs are applied orally.
After the prepotency time had elapsed, the suspended active compounds are applied orally and/or intraperitoneally on the 46th day after the infection.
The mice are selected on the 54th day after the infection. The adult parasites in the colon and caecum are counted with the aid of a microscope. The treatment results in the doses group are compared with the untreated control group.
Active compounds tested and effective dosage rates (dosis effectiva) can be seen from the table which follows.

Compound	Effective dosage rates in [mg/kg] (dosis effectiva) (Haemonchus contortus)	Reduction rate in [%] (Heterakis spumosa)
CC(C)CC1C(=O)OC(Cc2ccc(N3CCOCC3)cc2)C(=O)N(C)C(CC(C)C)C(=O)OC(C)C(=O)N(C)C(CC(C)C)C(=O)OC(Cc2ccc(N3CCOCC3)cc2)C(=O)N(C)C(CC(C)C)C(=O)OC(C)C(=O)N1C [Cyclo(-MeLeu-D-Lac-MeLeu-D-4-MorPhLac-)2, cyclo(-N-methyl-L-leucyl-D-lactyl-N-methyl-L-leucyl-D-4-N-morpholino-phenyllactyl-N-methyl-L-leucyl-D-lactyl-N-methyl-L-leucyl-D-4-N-morpholinophenyllactyl-), reference compound]	0.05	–
CC(C)C[C@H]1C(=O)O[C@H](Cc2ccccc2)C(=O)N(C)[C@@H](CC(C)C)C(=O)O[C@H](C)C(=O)N(C)[C@@H](CC(C)C)C(=O)O[C@H](Cc2ccccc2)C(=O)N(C)[C@@H](CC(C)C)C(=O)O[C@H](C)C(=O)N1C [PF 1022A, cyclo(-N-methyl-L-leucyl-D-lactyl-N-methyl-L-leucyl-D-phenyllactyl-N-methyl-L-leucyl-D-lactyl-N-methyl-L-leucyl-D-phenyllactyl-), reference compound]	0.25	0
Cyclo(-N-methyl-L-leucyl-D-thiolactyl-N-melhyl-L-leucyl-D-4-N-morpholinophenylthiiolactyl-N-methyl-L-leucyl-D-thiolactyl-N-methyl-L-leucyl-D-4-N-morpholinophenylthiolactyl-) [Example 3]	0.025	–
Cyclo(-N-methyl-L-leucyl-D-thiolactyl-N-methyl-L-leucy-D-4-(pyrid-2-yl-methoxy)-phenylthiolactyl-N-methyl-L-leucy-D-thiolactyl-N-methyl-L-leucyl-D-4-(pyrid-2-yl-methoxy)-phenylthiolactyl-) [Example 6]	0.01	–
Cyclo(-N-methyl-L-leucyl-D-thiolactyl-N-methyl-L-leucyl-D-4-(pyrid-2-yl-methoxy)-phenyllactyl-N-methyl-L-keucyl-D-lactyl-N-methyl-L-leucyl-D-4-(pyrid- 2-yl-methoxy)-phenyllactyl-) [Example 10]	0.01	–
Cyclo(-N-methyl-L-leucyl-D-thiolactyl-N-methyl-L-leucyl-D-phenylthiolactyl- N-methyl-L-leucyl-D-thiolactyl-N-methyl-L-leucyl-D-phenylthiolactyl-) [Example 1]	0.10	100
Cyclo(N-methyl-L-leucyl-D-thiolactyl-N-methyl-L-leucyl-D4-fur-2-yl-methoxy)-phenyllactyl-N-methyl-L-leucyl-D-lactyl-N-methyl-L-leucyl-D-phenyllactyl-) [Example 12]	0.01	–
Cyclo(N-methyl-L-leucyl-D-thiolactyl-N-methyl-L-leucyl-D-4-N-morpholinophenyllactyl-N-methyl-L-leucyl-D-lactyl-N-methyl-L-leucyl-D-4-N-morpholinophenyllactyl-) [Example 8]	0.01	–
Cyclo(N-methyl-L-leucyl-D-thiolactyl-N-methyl-L-leucyl-D-phenyllactyl-N-methyl-L-leucyl-D-lactyl-N-methyl-L-leucyl-D-phenyllactyl-) [Example 7]	0.01	–
